Structures can show the parent of a compound that is named as a salt. Where two headings read alike, the source gives them in different places.
System: HTT
Test: Splicing assay (RT-qPCR on cell lysates) monitoring HTT splice variants: AJ and CJ mRNA
Type: cell-based
Conditions: concentration having 50% response
Procedure: Example 69: Exemplary Splicing Assay for Monitoring Expression Levels of Splice Variants
To set up 10 uL RT-qPCR reactions, cell lysates were transferred to 384-well qPCR plates containing the master mix according to the table below. The plates were sealed, gently vortexed, and spun down before the run. The volumes were adjusted accordingly in some instances where the reaction was carried in 20 uL. The table below summarizes the components of the RT-qPCR reactions:
The RT-qPCR reaction was performed using a QuantStudio (ThermoFisher) under the following fast cycling conditions. All samples and standards were analyzed at least in duplicate. In some instances, bulk room temperature (RT) step of 5-10 minutes was completed for all plates before proceeding with qPCR. The table below summarizes the PCR cycle:
The data analysis was performed by first determining the ΔCt vs the housekeeper gene. This ΔCt was then normalized against the DMSO control (ΔΔCt) and converted to RQ (relative quantification) using the 2^(−ΔΔCt) equation. The RQ were then converted to a percentage response by arbitrarily setting an assay window of 3.5 ΔCt for HTT-CJ and an assay window of 9 ΔCt for HTT-AJ. […] The percentage response was then fitted to the 4 parametric logistic equation to evaluate the concentration dependence of compound treatment. The increase in AJ mRNA is reported as AC50 (compound concentration having 50% response in AJ increase) while the decrease in CJ mRNA levels is reported as IC50 (compound concentration having 50% response in CJ decrease).

[1] = Table 8, decrease in CJ mRNA, read-out: HTT CJ AC50
[2] = Table 8, increase in AJ mRNA, read-out: HTT AJ AC50
[3] = Table 7, decrease in CJ mRNA, read-out: HTT CJ AC50
[4] = Table 7, increase in AJ mRNA, read-out: HTT AJ AC50

SMILES	AC50 [1] [µM]	AC50 [2] [µM]	AC50 [3] [µM]	AC50 [4] [µM]
c1n[nH]cc1-c1ccc(-c2ccc(N3CCCC4(CCNC4)C3)nn2)c2[nH]ncc12 (stereo not drawn) [Compound 253]	> 10	> 10		
CN(c1ccc(-c2ccc(-c3cnnc(O)c3)c3scnc23)nn1)C1CC(C)(C)NC(C)(C)C1 [Compound 234]	> 10	> 10		
CN(c1cnc(-c2cc(F)c(-c3cn[nH]c3)c3cn[nH]c23)nn1)[C@@H]1C[C@H]2CC[C@@H](C1)N2 [Compound 149]			< 0.5	< 0.5
c1n[nH]cc1-c1ccc(-c2ccc(N3CCC4(CC3)CNC4)nn2)c2[nH]ncc12 [Compound 238]	> 10	> 10		
CN(c1ccc(-c2ccc(-c3cn[nH]c3)c3cn[nH]c23)nn1)[C@@H]1C[C@H]2CC[C@@H](C1)N2 [Compound 104, (1R,3S,5S)—N-methyl-N-[6-[4-(1H-pyrazol-4-yl)-1H-indazol-7-yl]pyridazin-3-yl]-8-azabicyclo[3.2.1]octan-3-amine]				< 0.5
CN(c1ccc(-c2ccc(-c3cn[nH]c3)c3ccsc23)nn1)C1CC(C)(C)NC(C)(C)C1 [Compound 131, N-methyl-6-[4-(1H-pyrazol-4-yl)-1-benzothiophen-7-yl]-N-(2,2,6,6-tetramethylpiperidin-4-yl)pyridazin-3-amine]			> 5	> 5
[2H]C([2H])([2H])N(c1ccc(-c2ccc(-c3cn[nH]c3)c3cn[nH]c23)nn1)C1CCNCC1 [Compound 267]	> 10	> 10		
CN(c1ccc(-c2ccc(-c3cnn(C)c3)c3cn[nH]c23)nn1)C1CCNCC1 [Compound 242, N-methyl-6-[4-(1-methylpyrazol-4-yl)-1H-indazol-7-yl]-N-(piperidin-4-yl)pyridazin-3-amine;trifluoroacetic acid]	> 10	> 10		
CN1C[C@@H]2CN(c3ccc(-c4ccc(-c5cn[nH]c5)c5cn[nH]c45)nn3)C[C@@H]2C1 [Compound 255]	> 10	> 10		
c1n[nH]cc1-c1ccc(-c2ccc(N3CCCC4(CNC4)C3)nn2)c2[nH]ncc12 [Compound 251]	> 10	> 10		
CN(c1ccc(-c2ccc(-n3cccn3)c3cn[nH]c23)nn1)C1CCNCC1 [Compound 264]	> 10	> 10		
CN(c1ccc(-c2ccc(-c3cn[nH]c3)c3cn[nH]c23)nn1)C1CCNCC1 [Compound 273]	> 10	> 10		
CN(c1ccc(-c2ccc(-c3ccc(=O)n(C)c3)c3ncsc23)nn1)C1CC(C)(C)NC(C)(C)C1 [Compound 281]	> 10	> 10		
c1n[nH]cc1-c1ccc(-c2ccc(N3CCNCC3)nn2)c2[nH]ncc12 [Compound 241]	> 10	1 to 10		
CN(c1ccc(-c2ccc(-c3cnn(C)c3)c3cn[nH]c23)nn1)[C@@H]1C[C@H]2CC[C@@H](C1)N2 [Compound 143]			< 0.5	0.5 to 5
CN1C[C@@H]2[C@H](C1)[C@H]2N(C)c1ccc(-c2ccc(-c3cn[nH]c3)c3ncsc23)nn1 [Compound 235, (exo)-N,3-dimethyl-N-{6-[4-(1H-pyrazol-4-yl)-1,3-benzothiazol-7-yl]pyridazin-3-yl}-3-azabicyclo[3.1.0]hexan-6-amine hydrochloride]	> 10	> 10		
c1cc(-c2ccc(N3CCCN3)c3cn[nH]c23)nnc1N[C@@H]1C[C@H]2CC[C@@H](C1)N2 [Compound 278]	< 0.1	0.1 to 1		
CN(c1ccc(-c2ccc(-c3c[nH]nn3)c3cn[nH]c23)nn1)[C@@H]1C[C@H]2CC[C@@H](C1)N2 [Compound 141]			< 0.5	< 0.5
CN(c1ccc(-c2ccc(-c3cn[nH]c3)c3cn[nH]c23)nn1)C1CC(C)(C)NC(C)(C)C1 [Compound 137, N-methyl-6-[4-(1H-pyrazol-4-yl)-1H-indazol-7-yl]-N-(2,2,6,6-tetramethylpiperidin-4-yl)pyridazin-3-amine]			0.5 to 5	0.5 to 5
[2H]C([2H])([2H])N(c1ccc(-c2ccc(-c3cn[nH]c3)c3ncsc23)nn1)C1CC(C)(C)NC(C)(C)C1 [Compound 231, N-(2H3)methyl-6-[4-(1H-pyrazol-4-yl)-1,3-benzothiazol-7-yl]-N-(2,2,6,6-tetramethylpiperidin-4-yl)pyridazin-3-amine]	0.1 to 1	0.1 to 1		

SMILES	AC50 [1] [µM]	AC50 [2] [µM]	AC50 [3] [µM]	AC50 [4] [µM]
C[C@H]1C[C@@H](N(C)c2ccc(-c3ccc(-n4cccn4)c4cn[nH]c34)nn2)CCN1 [Compound 159]			> 5	> 5
C[C@H]1C[C@@H](N(C)c2ccc(-c3ccc(-c4cn[nH]c4)c4cn[nH]c34)nn2)CCN1 [Compound 160]			> 5	> 5
CC1(C)CC(Nc2ccc(-c3ccc(-c4cn[nH]c4)c4cn[nH]c34)nn2)CC(C)(C)N1 [Compound 275]	0.1 to 1	1 to 10		
CN(c1ccc(-c2ccc(-c3cn[nH]c3)c3cc[nH]c23)nn1)[C@@H]1C[C@H]2CC[C@@H](C1)N2 [Compound 112, (1R,3S,5S)—N-methyl-N-[6-[4-(1H-pyrazol-4-yl)-1H-indol-7-yl]pyridazin-3-yl]-8-azabicyclo[3.2.1] octan-3-amine]			< 0.5	0.5 to 5
COc1cc(-c2ccc(-c3ccc(N(C)C4CC(C)(C)NC(C)(C)C4)nn3)c3scnc23)ccn1 [Compound 280]	0.1 to 1	0.1 to 1		
CN(c1ccc(-c2ccc(-c3cnn(C)c3)c3cn[nH]c23)nn1)C1CC(C)(C)NC(C)(C)C1 [Compound 243, N-methyl-6-[4-(1-methylpyrazol-4-yl)-1H-indazol-7-yl]-N-(2,2,6,6-tetramethylpiperidin-4-yl)pyridazin-3-amine; trifluoroacetic acid]	1 to 10	1 to 10		
c1nc2c(-c3cn[nH]c3)ccc(-c3ccc(N4CCC45CCNCC5)nn3)c2s1 [Compound 266]	1 to 10	> 10		
CN(c1ccc(-c2ccc(-n3cccn3)c3cc[nH]c23)nn1)[C@@H]1C[C@H]2CC[C@@H](C1)N2 [Compound 113, (1R,3R,5S)—N-methyl-N-[6-[4-(pyrazol-1-yl)-1H-indol-7-yl]pyridazin-3-yl]-8-azabicyclo[3.2.1]octan-3-amine]			0.5 to 5	> 5
C[C@H]1C[C@H](N(C)c2ccc(-c3ccc(-n4cccn4)c4cc[nH]c34)nn2)CCN1 [Compound 158]			> 5	> 5
c1nc2c(-c3cn[nH]c3)ccc(-c3ccc(N4CCC45CCNC5)nn3)c2s1 (stereo not drawn) [Compound 277]	> 10	> 10		
C[C@@H]1C[C@H](N(C)c2ccc(-c3ccc(-c4cn[nH]c4)c4c3NC(=O)C4)nn2)CCN1 [Compound 121, 7-(6-[methyl[(2R,4R)-2-methylpiperidin-4-yl]amino]pyridazin-3-yl)-4-(1H-pyrazol-4-yl)-1,3-dihydroindol-2-one]				> 5
c1n[nH]cc1-c1ccc(-c2ccc(N3C[C@H]4CNC[C@H]4C3)nn2)c2[nH]ncc12 [Compound 254]	> 10	> 10		
CN(c1ccc(-c2ccc(-c3cn[nH]c3)c3cn[nH]c23)nn1)[C@H]1C[C@]2(C)CC[C@](C)(C1)N2 [Compound 146, N,1,5-trimethyl-N-[6-[4-(1H-pyrazol-4-yl)-1H-indazol-7-yl]pyridazin-3-yl]-8-azabicyclo[3.2.1]octan-3-amine]			< 0.5	< 0.5
C[C@@H]1C[C@H](N(C)c2ccc(-c3ccc(-n4cccn4)c4nn[nH]c34)nn2)CCN1 [Compound 117, N-methyl-N-[(2R,4R)-2-methylpiperidin-4-yl]-6-[7-(pyrazol-1-yl)-3H-1,2,3-benzotriazol-4-yl]pyridazin-3-amine]			> 5	> 5
CCN(c1ccc(-c2ccc(-c3cn[nH]c3)c3cn[nH]c23)nn1)C1CCNCC1 [Compound 274]	> 10	> 10		
c1n[nH]cc1-c1ccc(-c2ccc(O[C@@H]3C[C@H]4CC[C@@H](C3)N4)nn2)c2[nH]ncc12 [Compound 142, 7-[6-[(1R,3S,5S)-8-azabicyclo[3.2.1]octan-3-yloxy]pyridazin-3-yl]-4-(1H-pyrazol-4-yl)-1H-indazole]			< 0.5	0.5 to 5
COc1cc(-c2ccc(-c3ccc(N(C)C4CC(C)(C)NC(C)(C)C4)nn3)c3ncsc23)cnn1 [Compound 233]	0.1 to 1	0.1 to 1		
CC1(C)CC(Oc2ccc(-c3ccc(-c4cn[nH]c4)c4cn[nH]c34)nn2)CC(C)(C)N1 [Compound 138, 4-(1H-pyrazol-4-yl)-7-[6-[(2,2,6,6-tetramethylpiperidin-4-yl)oxy]pyridazin-3-yl]-1H-indazole]			< 0.5	0.5 to 5
CN(c1ccc(-c2ccc(-c3ccn(C)c(=O)c3)c3ncsc23)nn1)C1CC(C)(C)NC(C)(C)C1 [Compound 279]	1 to 10	1 to 10		
c1nc2c(-c3cn[nH]c3)ccc(-c3ccc(N4CCC45CCCNC5)nn3)c2s1 (stereo not drawn) [Compound 276]	1 to 10	1 to 10		

Source: US20230140983A1, “PYRIDAZINE DERIVATIVES FOR MODULATING NUCLEIC ACID SPLICING” (REMIX THERAPEUTICS INC., priority 2020, published 2023)
